Data as given in ChEMBL document CHEMBL4334495, “Design and Biological Evaluation of m-Xylene Thioether-Stapled Short Helical Peptides Targeting the HIV-1 gp41 Hexameric Coiled-Coil Fusion Complex” (J Med Chem, 2019).
Starred links: 1 amine or outer side, 2 acyl side, 3 side chain; linkers in the order of their positions; H or OH if unused. Positions of bridges follow the written chain, without caps; N, C: chain ends. Non-standard residues stand in square brackets, D forms with d. Residues, ends and D or L forms follow the SMILES beside them. ξ: configuration not given here. mXylylene = c1cc(C[*:1])cc(C[*:2])c1; ξhCys = NC(CCS)C(=O)O

Tests used:
[1] = test system: Human immunodeficiency virus 1; assay: (§1) Ratio of EC50 for antiviral activity against T20 resistant HIV1 NL4-3 harboring with V38E/N42S mutant infected in human MT2 cells or CEMx174 5.25 M7 cells in absence of HP23 to EC50 for antiviral activity against T20 resistant HIV1 NL4-3 harboring with V38E/N42S mutant infected in human MT2 cells or CEMx174 5.25 M7 cells at 7000:1 compound to HP23 ratio; type: functional
[2] = test system: Human immunodeficiency virus 1; assay: Antiviral activity against HIV1 NL4-3 infected in human MT2 cells or CEMx174 5.25 M7 cells assessed as reduction in p24 Gag protein production at 5:1 compound to HP23 ratio measured at 4 days post-infection by ELISA; type: functional, organism-based; settings: Human immunodeficiency virus 1, NL4-3, 96 h
[3] = test system: Human immunodeficiency virus 1; assay: Synergistic antiviral activity against R5 tropic HIV-1 subtype-B Bal infected in human MT2 cells or CEMx174 5.25 M7 cells assessed as reduction in p24 Gag protein production by measuring combination index at 6:1 ratio of hCS6ERE to compound measured at 4 days post-infection by ELISA; type: functional, HIV-1 group M
[4] = test system: Human immunodeficiency virus 1; assay: (§2) Ratio of EC50 for antiviral activity against R5 tropic HIV-1 subtype-B Bal infected in human MT2 cells or CEMx174 5.25 M7 cells in absence of HP23 to EC50 for antiviral activity against R5 tropic HIV-1 subtype-B Bal infected in human MT2 cells or CEMx174 5.25 M7 cells at 6:1 compound to HP23 ratio; type: functional, HIV-1 group M
[5] = test system: Human immunodeficiency virus 1; assay: Antiviral activity against X4 tropic HIV-1 subtype-B 3B infected in human MT2 cells or CEMx174 5.25 M7 cells assessed as reduction in p24 Gag protein production at 24:1 compound to HP23 ratio measured at 4 days post-infection by ELISA; type: functional, cell-based, HIV-1 group M; settings: Human immunodeficiency virus 1, 3B, 96 h
[6] = test system: Human immunodeficiency virus 1; assay: as §1, with “3500:1” for “7000:1”; type: functional
[7] = Metabolic stability of the compound assessed as Proteinase K (unknown origin)-mediated compound hydrolysis by measuring parent compound remaining at 3 to 100 uM after 4 hrs by RP-HPLC analysis; type: ADME; settings: human, read-out: Stability
[8] = test system: Human immunodeficiency virus 1; assay: Synergistic antiviral activity against T2635 resistant HIV1 LAI harboring Q66R mutant infected in human MT2 cells or CEMx174 5.25 M7 cells assessed as reduction in p24 Gag protein production by measuring combination index at 50:1 compound ratio measured at 4 days post infection by ELISA; type: functional, M:B_Lai
[9] = test system: Human immunodeficiency virus 1; assay: as §1, with “T2635” for “T20”, “LAI” for “NL4-3”, “Q66R” for “with V38E/N42S”, “to” for “to EC50 for”, “25:1 ratio of” for “7000:1”, “HP23” for “HP23 ratio”; type: functional, M:B_Lai
[10] = test system: Human immunodeficiency virus 1; assay: Synergistic antiviral activity against HIV1 NL4-3 infected in human MT2 cells or CEMx174 5.25 M7 cells assessed as reduction in p24 Gag protein production by measuring combination index at 5:1 compound to HP23 ratio measured at 4 days post-infection by ELISA; type: functional
[11] = test system: Human immunodeficiency virus 1; assay: Antiviral activity against R5 tropic HIV-1 subtype-B Bal infected in human MT2 cells or CEMx174 5.25 M7 cells assessed as reduction in p24 Gag protein production at 12:1 ratio of compound to HP23 measured at 4 days post-infection by ELISA; type: functional, cell-based, HIV-1 group M; settings: Human immunodeficiency virus 1, Bal, 96 h
[12] = test system: Human immunodeficiency virus 1; assay: Ratio of EC50 for antiviral activity against X4 tropic HIV-1 subtype-B 3B infected in human MT2 cells or CEMx174 5.25 M7 cells in absence of HP23 to EC50 for antiviral activity against X4 tropic HIV-1 subtype-B 3B infected in human MT2 cells or CEMx174 5.25 M7 cells at 24:1 compound to HP23 ratio; type: functional, HIV-1 group M
[13] = test system: Human immunodeficiency virus 1; assay: Antiviral activity against X4 tropic HIV-1 subtype-B 3B infected in human MT2 cells or CEMx174 5.25 M7 cells assessed as reduction in p24 Gag protein production at 6:1 compound to HP23 ratio measured at 4 days post-infection by ELISA; type: functional, cell-based, HIV-1 group M; settings: Human immunodeficiency virus 1, 3B, 96 h
[14] = test system: Human immunodeficiency virus 1; assay: (§3) Ratio of EC50 for antiviral activity against T20 resistant HIV1 NL4-3 harboring with V38E/N42T mutant infected in human MT2 cells or CEMx174 5.25 M7 cells in absence of HP23 to EC50 for Antiviral activity against T20 resistant HIV1 NL4-3 harboring with V38E/N42T mutant infected in human MT2 cells or CEMx174 5.25 M7 cells at 150:1 compound to HP23 ratio; type: functional
[15] = molecular target: Envelope glycoprotein gp160 (Human immunodeficiency virus 1) (UniProt Q6QLK5); assay: Synergistic inhibition of HIV1 gp41-induced cell-cell fusion between viral envelope expressing human HL2/3 cells to CD4/CCR5 receptor expressing TZM-bl cells assessed as combination index at 2:1 compound to HP23 ratio incubated for 6 hrs by luciferase reporter gene assay
[16] = test system: Human immunodeficiency virus 1; assay: as §3, with “300:1” for “150:1”; type: functional
[17] = test system: Human immunodeficiency virus 1; assay: Ratio of EC50 for antiviral activity against HIV1 NL4-3 infected in human MT2 cells or CEMx174 5.25 M7 cells in absence of hCS6ERE to EC50 for antiviral activity against HIV1 NL4-3 infected in human MT2 cells or CEMx174 5.25 M7 cells at 10:1 hCS6ERE to compound ratio; type: functional
[18] = test system: Human immunodeficiency virus 1; assay: Antiviral activity against X4 tropic HIV-1 subtype-B 3B infected in human MT2 cells or CEMx174 5.25 M7 cells assessed as reduction in p24 Gag protein production at 24:1 ratio of hCS6ERE to compound measured at 4 days post-infection by ELISA; type: functional, cell-based, HIV-1 group M; settings: Human immunodeficiency virus 1, 3B, 96 h
[19] = test system: Human immunodeficiency virus 1; assay: Antiviral activity against T2635 resistant HIV1 LAI harboring Q66R mutant infected in human MT2 cells or CEMx174 5.25 M7 cells assessed as reduction in p24 Gag protein production at 50:1 ratio of hCS6ERE to compound measured at 4 days post infection by ELISA; type: functional, organism-based, M:B_Lai
[20] = molecular target: Envelope glycoprotein gp160 (Human immunodeficiency virus 1) (UniProt Q6QLK5); assay: Ratio of EC50 for inhibition of HIV1 gp41-induced cell-cell fusion between viral envelope expressing human HL2/3 cells to CD4/CCR5 receptor expressing TZM-bl cells in absence of HP23 to EC50 for inhibition of HIV1 gp41-induced cell-cell fusion between viral envelope expressing human HL2/3 cells to CD4/CCR5 receptor expressing TZM-bl cells at 1:1 ratio of hCS6ERE to compound
[21] = test system: Human immunodeficiency virus 1; assay: as §2, with “hCS6ERE” for “HP23”, “12:1 ratio of hCS6ERE to” for “6:1”, “compound” for “compound to HP23 ratio”; type: functional, HIV-1 group M
[22] = test system: Human immunodeficiency virus 1; assay: as §3, with “hCS6ERE” for “HP23”, “600:1 hCS6ERE to” for “150:1”, “compound” for “compound to HP23”; type: functional
[23] = test system: Human immunodeficiency virus 1; assay: Antiviral activity against HIV1 NL4-3 infected in human MT2 cells or CEMx174 5.25 M7 cells assessed as reduction in p24 Gag protein production at 10:1 hCS6ERE to compound ratio measured at 4 days post-infection by ELISA; type: functional, organism-based; settings: Human immunodeficiency virus 1, NL4-3, 96 h

Envelope glycoprotein gp160 (Human immunodeficiency virus 1), sequence (Q6QLK5 1-814): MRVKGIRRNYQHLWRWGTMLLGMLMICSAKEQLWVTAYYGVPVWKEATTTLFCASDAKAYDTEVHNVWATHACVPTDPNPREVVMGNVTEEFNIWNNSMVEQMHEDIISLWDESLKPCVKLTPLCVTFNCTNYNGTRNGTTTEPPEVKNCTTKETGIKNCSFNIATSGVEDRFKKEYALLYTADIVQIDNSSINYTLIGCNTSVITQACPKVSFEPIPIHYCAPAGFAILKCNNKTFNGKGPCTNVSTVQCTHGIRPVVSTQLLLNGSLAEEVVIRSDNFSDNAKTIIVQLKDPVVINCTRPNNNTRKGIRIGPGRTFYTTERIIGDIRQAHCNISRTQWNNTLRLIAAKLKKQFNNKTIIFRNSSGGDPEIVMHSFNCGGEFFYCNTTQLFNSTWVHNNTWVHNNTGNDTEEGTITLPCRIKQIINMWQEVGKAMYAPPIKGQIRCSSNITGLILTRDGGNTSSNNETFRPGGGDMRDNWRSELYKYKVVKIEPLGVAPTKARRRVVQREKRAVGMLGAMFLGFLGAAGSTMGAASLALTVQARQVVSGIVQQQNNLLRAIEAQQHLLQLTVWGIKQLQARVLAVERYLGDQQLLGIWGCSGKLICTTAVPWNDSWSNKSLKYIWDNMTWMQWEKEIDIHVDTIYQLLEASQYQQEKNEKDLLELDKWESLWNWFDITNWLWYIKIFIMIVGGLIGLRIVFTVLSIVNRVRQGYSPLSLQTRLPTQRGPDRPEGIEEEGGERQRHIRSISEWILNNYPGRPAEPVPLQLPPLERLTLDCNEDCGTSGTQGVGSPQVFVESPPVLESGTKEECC

For `CC[C@H](C)[C@H](NC(C)=O)C(=O)N[C@@H](CCC(=O)O)C(=O)N[C@@H](CCC(=O)O)C(=O)N[C@@H](CC(C)C)C(=O)N[C@H](C(=O)NC1CCSCc2cccc(c2)CSCCC(C(=O)N[C@@H](CCC(N)=O)C(=O)N[C@@H](CCC(N)=O)C(=O)N[C@@H](CCCNC(=N)N)C(=O)N[C@@H](CCCCN)C(=O)N[C@@H](CC(N)=O)C(=O)N[C@@H](CCC(=O)O)C(=O)N[C@@H](CCC(=O)O)C(=O)N[C@@H](C)C(=O)N[C@@H](CC(C)C)C(=O)N[C@@H](CCCNC(=N)N)C(=O)N[C@@H](CCC(=O)O)C(=O)N[C@@H](CC(C)C)C(N)=O)NC(=O)[C@H](CCC(N)=O)NC(=O)[C@H](C)NC(=O)[C@H](C)NC1=O)[C@@H](C)CC` (stereo partly drawn) (Ac-IEELI[ξhCys]AAQ[ξhCys]QQRKNEEALREL-NH2; linker 6-10 via mXylylene), the “Ratio EC50” value [1] was 2.7, the EC50 [2] was 4.4 nM and the CI [3] was 0.8. The “Ratio EC50” value [4] was 3.8, the EC50 [5] was 17.3 nM and the “Ratio EC50” value [6] was 3.4. For the same compound, the remaining at 4 h, up to 100 µM [7] was 100%, the CI [8] was 0.4 and the “Ratio EC50” value [9] was 2.2. For the same compound, the CI [10] was 0.4, the EC50 [11] was 6 nM and the “Ratio EC50” value [12] was 1.6. The EC50 [13] was 7.6 nM, the “Ratio EC50” value [14] was 3.1 and the CI [15] was 0.8. For the same compound, the “Ratio EC50” value [16] was 2.3.

In the case of H-EMTWEEWEKKIEEYTKKIEEILK-OH, the “Ratio EC50” value [17] is reported as 3.8, the EC50 [18] is reported as 0.7 nM and the EC50 [19] is reported as 0.5 nM. The Ratio EC50 [20] was 1, the “Ratio EC50” value [21] was 2.6 and the “Ratio EC50” value [22] was 5.1. It also gave an EC50 [23] of 0.9 nM.
